Data set [1] deals with T1, human β1-adrenergic receptor (Homo sapiens, UniProt P08588).
T1 construct: expressed in transfected cells; host or cells: CHO cells
In words: cAMP accumulation (SPA) in CHO cells transfected with human β1 adrenergic receptor. It is filed as cell-based. Particulars: for EC50: CHO cells transfected with human β1-AR, cAMP, 15 min incubation, 10^−8 to 10^−4 M, read-out: beta-1 EC50; for beta-1 (IA) maximal response relative to isoproterenol: IA = % activity compound / % activity isoproterenol at 10^−5 M, CHO human β1 cells. The essentials:
(§1)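 CHO cell clones expressing 70–110 fmol/mg protein of receptor were pre-incubated 30 min at 37 °C, then treated 15 min at 37 °C with compound (10^−8 to 10^−4 M) in DMEM with 250 μM IBMX and 1 mM ascorbic acid. cAMP was read by SPA after acid stop. EC50 and IA were expressed relative to maximal 10^−5 M isoproterenol response.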
In general terms: Changes in cAMP serve as a functional read-out for many G protein-coupled receptors.

Data set [2] deals with T2, human β2-adrenergic receptor (Homo sapiens, UniProt P07550).
T2 construct: expressed in transfected cells; host or cells: CHO cells
T2 sequence (P07550 whole entry): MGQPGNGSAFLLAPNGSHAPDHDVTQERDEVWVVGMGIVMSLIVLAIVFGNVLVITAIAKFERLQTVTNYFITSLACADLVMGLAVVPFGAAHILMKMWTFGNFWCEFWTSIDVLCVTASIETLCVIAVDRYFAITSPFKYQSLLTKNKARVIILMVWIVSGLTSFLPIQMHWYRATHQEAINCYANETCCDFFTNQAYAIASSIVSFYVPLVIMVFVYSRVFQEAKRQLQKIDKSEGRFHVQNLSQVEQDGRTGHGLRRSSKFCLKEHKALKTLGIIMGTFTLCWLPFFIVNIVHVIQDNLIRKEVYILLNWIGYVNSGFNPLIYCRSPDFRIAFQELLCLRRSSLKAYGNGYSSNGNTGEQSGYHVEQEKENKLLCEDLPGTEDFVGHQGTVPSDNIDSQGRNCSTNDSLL
In words: cAMP accumulation (SPA) in CHO cells transfected with human β2 adrenergic receptor. It is filed as cell-based. The following applies: for EC50: CHO cells transfected with human β2-AR, cAMP, 15 min incubation, 10^−8 to 10^−4 M, read-out: beta-2 EC50; for beta-2 (IA) maximal response relative to isoproterenol: IA = % activity compound / % activity isoproterenol at 10^−5 M, CHO human β2 cells. In outline: as §1

Data set [3] concerns the target T3, human β3 adrenergic receptor (Homo sapiens, UniProt P13945).
T3 construct: Full length β3 AR clones (402 amino acids) containing the last 6 amino acids of hβ3— AR are prepared; expressed in transfected cells; host or cells: CHO cells
In words: cAMP accumulation (SPA) in CHO cells transfected with human β3 adrenergic receptor. The data set is classed as cell-based. Particulars: for EC50: CHO cells expressing human β3-AR, cAMP, 30 min incubation, 10^−9 M to 10^−5 M, read-out: beta-3 EC50; for beta-3 (IA) maximal response relative to isoproterenol: IA = % activity compound / % activity isoproterenol at 10^−5 M, CHO human β3 cells. In outline: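 CHO cells expressing human β3-AR (70–110 fmol/mg protein) treated with compound at 10^−9 to 10^−5 M in DMEM with 250 μM IBMX and 1 mM ascorbic acid, 30 min, 37 °C. cAMP measured by SPA; EC50 derived, and intrinsic activity expressed relative to the maximal response of 10^−5 M isoproterenol.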

These results are taken from patent US6444685B1, “N-(4-sulfonylaryl)Cyclylamine 2-hydroxyethylamines as beta-3 adrenergic receptor agonists” (Wyeth, priority 2000, dated 2002).

Structures are written as SMILES.

As usually defined, the melting point is the temperature, or range, at which the solid turns liquid. One may read the EC50 as the concentration that produces a half-maximal response.

T1 sequence (P08588 whole entry): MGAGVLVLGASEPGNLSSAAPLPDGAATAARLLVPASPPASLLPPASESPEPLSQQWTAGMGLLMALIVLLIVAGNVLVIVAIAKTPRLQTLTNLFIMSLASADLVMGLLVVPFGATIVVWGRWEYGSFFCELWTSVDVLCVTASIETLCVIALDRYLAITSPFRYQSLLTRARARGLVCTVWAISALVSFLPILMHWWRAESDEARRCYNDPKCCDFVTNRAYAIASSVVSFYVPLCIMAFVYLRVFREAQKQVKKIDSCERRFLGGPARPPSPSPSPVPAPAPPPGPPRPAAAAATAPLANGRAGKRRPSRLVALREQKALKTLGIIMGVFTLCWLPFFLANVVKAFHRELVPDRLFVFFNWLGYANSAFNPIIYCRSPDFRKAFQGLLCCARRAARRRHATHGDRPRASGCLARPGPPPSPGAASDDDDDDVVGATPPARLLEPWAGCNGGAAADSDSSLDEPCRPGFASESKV
T3 sequence (P13945 whole entry): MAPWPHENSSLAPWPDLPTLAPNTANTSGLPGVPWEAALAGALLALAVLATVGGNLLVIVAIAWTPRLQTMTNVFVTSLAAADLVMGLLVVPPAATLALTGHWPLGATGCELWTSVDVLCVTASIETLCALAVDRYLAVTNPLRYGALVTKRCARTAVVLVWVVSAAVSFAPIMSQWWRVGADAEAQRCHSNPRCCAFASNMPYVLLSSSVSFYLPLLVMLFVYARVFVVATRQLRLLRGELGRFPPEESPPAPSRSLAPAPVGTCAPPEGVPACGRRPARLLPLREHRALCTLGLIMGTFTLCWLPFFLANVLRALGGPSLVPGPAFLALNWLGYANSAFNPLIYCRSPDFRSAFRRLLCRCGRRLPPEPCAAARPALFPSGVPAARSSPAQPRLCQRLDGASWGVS

Regarding `CC(C)(C)OC(=O)CNS(=O)(=O)c1ccc(N2CCC(NC[C@H](O)c3ccc(O)c(NS(C)(=O)=O)c3)CC2)cc1` [Example 52, tert-Butyl 2-{[(4-{4-[((2R)-2-hydroxy-2-{4-hydroxy-3-[(methylsulfonyl)amino]-phenyl}ethyl)amino]-1-piperidinyl}phenyl)sulfonyl]amino}acetate], the melting point was 113 to 115 °C. Further, in data set [1], the EC50 came to 960 nM and the “beta-1 (IA) maximal response relative to isoproterenol” value is on record as “(0.48)”. Further, in data set [2], the EC50 stood at 480 nM and the “beta-2 (IA) maximal response relative to isoproterenol” value was “(0.65)”. Also, in data set [3], the EC50 was found to be 6 nM and the “beta-3 (IA) maximal response relative to isoproterenol” value is reported as “(1)”.
On to `CC(C)(C)OC(=O)CN(CC(=O)OC(C)(C)C)S(=O)(=O)c1ccc(N2CCC(NC[C@H](O)c3ccc(O)c(NS(C)(=O)=O)c3)CC2)cc1` [Example 54, tert-Butyl 2-{[2-(tert-butoxy)-2-oxoethyl][(4-{4-[((2R)-2-hydroxy-2-{4-hydroxy-3-[(methylsulfonyl)amino]phenyl}ethyl)amino]-1-piperidinyl}-phenyl)sulfonyl]amino}acetate], for which the melting point was in the range of 164 to 166 °C. Moreover, in data set [1], the EC50 stood at 2300 nM and the “beta-1 (IA) maximal response relative to isoproterenol” value is “(0.33)”. For the same compound, in data set [2], the half-maximal effective concentration (EC50) is 12000 nM and the “beta-2 (IA) maximal response relative to isoproterenol” value was “(0.42)”. In data set [3], the half-maximal effective concentration (EC50) was determined as 14 nM and the “beta-3 (IA) maximal response relative to isoproterenol” value is listed as “(1.2)”.
As for `CCOC(=O)CNS(=O)(=O)c1ccc(N2CCC(NC[C@H](O)c3ccc(O)c(NS(C)(=O)=O)c3)CC2)cc1` [Example 56, Ethyl 2-{[(4-{4-[((2R)-2-Hydroxy-2-{4-hydroxy-3-[(methylsulfonyl)amino]-phenyl}ethyl)amino]-1-piperidinyl}phenyl)sulfonyl]amino}acetate], the melting point was in the range of 105 to 107 °C. Also, in data set [1], the 50% effective concentration (EC50) came to 9500 nM and the “beta-1 (IA) maximal response relative to isoproterenol” value was “(0.31)”. In addition, in data set [2], the 50% effective concentration (EC50) was 1600 nM and the “beta-2 (IA) maximal response relative to isoproterenol” value is on record as “(0.27)”. Also, in data set [3], the 50% effective concentration (EC50) was found to be 14 nM and the “beta-3 (IA) maximal response relative to isoproterenol” value is listed as “(1)”.
`CCOC(=O)NC(=O)CNS(=O)(=O)c1ccc(N2CCC(NC[C@H](O)c3ccc(O)c(NS(C)(=O)=O)c3)CC2)cc1` [Example 58, Ethyl 2-{[(4-{4-[((2R)-2-Hydroxy-2-{4-hydroxy-3-((methylsulfonyl)amino]-phenyl}ethyl)amino]piperidin-1-yl}phenyl)sulfonyl]amino}acetylcarbamate] displayed a melting point of 98 to 105 °C. Further, in data set [1], the EC50 was found to be 3600 nM and the “beta-1 (IA) maximal response relative to isoproterenol” value was “(0.65)”. Further, in data set [2], the 50% effective concentration (EC50) was 3900 nM and the “beta-2 (IA) maximal response relative to isoproterenol” value is “(0.31)”. For the same compound, in data set [3], the 50% effective concentration (EC50) is 11 nM and the “beta-3 (IA) maximal response relative to isoproterenol” value is on record as “(1)”.
The compound `COC(=O)N(CC(=O)OC(C)(C)C)S(=O)(=O)c1ccc(N2CCC(NC[C@H](O)c3ccc(O)c(NS(C)(=O)=O)c3)CC2)cc1` [Example 59, tert-Butyl [[(4-{4-[((2R)-2-Hydroxy-2-{4-hydroxy-3-[(methylsulfonyl)amino]-phenyl}ethyl)amino]piperidin-1-yl}phenyl)sulfonyl](methoxycarbonyl)-amino]acetate] gave a melting point of 110 to 115 °C. Also, in data set [1], the EC50 was 7800 nM and the “beta-1 (IA) maximal response relative to isoproterenol” value is on record as “(0.52)”. Besides, in data set [2], the half-maximal effective concentration (EC50) turned out to be 12000 nM and the “beta-2 (IA) maximal response relative to isoproterenol” value was “(0.2)”. Also, in data set [3], the concentration giving a half-maximal response (EC50) was 15 nM and the “beta-3 (IA) maximal response relative to isoproterenol” value is reported as “(0.98)”.
`CCOC(=O)CN(Cc1cc(F)ccc1F)S(=O)(=O)c1ccc(N2CCC(NC[C@H](O)c3ccc(O)c(NS(C)(=O)=O)c3)CC2)cc1` [Example 61, Ethyl {(2,5-Difluorobenzyl)[(4-{4-[((2R)-2-hydroxy-2-{4-hydroxy-3-[(methyl-sulfonyl)amino]phenyl}ethyl)amino]piperidin-1-yl}phenyl)sulfonyl]amino}acetate] gave a melting point of 85 to 90 °C. In addition, in data set [1], the 50% effective concentration (EC50) stood at 1900 nM and the “beta-1 (IA) maximal response relative to isoproterenol” value was “(0.3)”. Moreover, the “beta-2 (IA) maximal response relative to isoproterenol” value in data set [2] was “(0.2)”. In data set [3], the EC50 was 1 nM and the “beta-3 (IA) maximal response relative to isoproterenol” value is on record as “(1.1)”.
In the case of `CCCCNC(=O)NS(=O)(=O)c1ccc(N2CCC(NC[C@H](O)c3ccc(O)c(NS(C)(=O)=O)c3)CC2)cc1` [Example 62, 1-[4-({[(Butylamino)carbonyl]amino}sulfonyl)phenyl]-4-[((2)-2-hydroxy-2-{4-hydroxy-3-[(methylsulfonyl)amino]phenyl}ethyl)amino]piperidine], the melting point lay within 100 to 102 °C. In data set [1], the concentration giving a half-maximal response (EC50) worked out at 5000 nM and the “beta-1 (IA) maximal response relative to isoproterenol” value was “(0.32)”. Moreover, in data set [2], the EC50 was 5000 nM and the “beta-2 (IA) maximal response relative to isoproterenol” value is on record as “(0.31)”. Also, in data set [3], the EC50 worked out at 9 nM and the “beta-3 (IA) maximal response relative to isoproterenol” value is listed as “(1)”.
`CCOC(=O)CN1CCN(S(=O)(=O)c2ccc(N3CCC(NC[C@H](O)c4ccc(O)c(NS(C)(=O)=O)c4)CC3)cc2)CC1` [Example 64, Ethyl {4-((4-{4-[((2R)-2-Hydroxy-2-{4-hydroxy-3-[(methylsulfonyl)amino]-phenyl}ethyl)amino]piperidin-1-yl}phenyl)sulfonyl]piperazin-1-yl}acetate] showed a melting point of 91 to 92 °C. Moreover, in data set [1], the “beta-1 (IA) maximal response relative to isoproterenol” value is given as “(0.11)”. Also, in data set [2], the EC50 was found to be 5900 nM and the “beta-2 (IA) maximal response relative to isoproterenol” value is “(0.22)”. Further, in data set [3], the concentration giving a half-maximal response (EC50) is 4 nM and the “beta-3 (IA) maximal response relative to isoproterenol” value is listed as “(1.1)”.
In turn, `CN1CCN(S(=O)(=O)c2ccc(N3CCC(NC[C@H](O)c4ccc(O)c(NS(C)(=O)=O)c4)CC3)cc2)CC1` [Example 66, N-(2-Hydroxy-5-{(1R)-1-hydroxy-2-[(1-{4-[(4-methylpiperazin-1-yl)sulfonyl]phenyl}piperidin-4-yl)amino]ethyl}phenyl)methanesulfonamide] gave a melting point of 89 to 91 °C. Moreover, in data set [1], the EC50 came out at 2700 nM and the “beta-1 (IA) maximal response relative to isoproterenol” value is recorded as “(0.44)”. For the same compound, the “beta-2 (IA) maximal response relative to isoproterenol” value in data set [2] is “(0.17)”. Also, in data set [3], the EC50 was 25 nM and the “beta-3 (IA) maximal response relative to isoproterenol” value was “(0.95)”.
